# Columns and labels:
# [1] = docetaxel powder dissolution test, 25 mL water in beaker; type: physicochemical; conditions: for maximum docetaxel concentration reached / maximum docetaxel in solution, % of total docetaxel present: ±6 mg docetaxel
# Method: An amount of powder, equal to approximately 6 mg Docetaxel, was placed in a 50 mL beaker. A magnetic stirring bar and 25 mL water were added to the beaker. The solution was stirred at 720 rpm, and kept at approximately 37° C. Samples were collected at various timepoints, and filtrated using a 0.45 μm filter before they were diluted with a 1:4 v/v mixture of methanol and acetonitrile. The filtrated and diluted samples were subsequently analyzed by HPLC-UV (see table 15).
# [2] = clinical phase I trial, docetaxel plasma pharmacokinetics; type: in vivo, human; conditions: 20 mg docetaxel liquid formulation; 100 mg ritonavir at t=0 plus 100 mg 4 hours after docetaxel; patient 306
# Method: 10 patients participated in an ongoing clinical phase I trial.
# These patients were given medication which consisted of a liquid formulation of docetaxel or a solid composition comprising a solid dispersion of docetaxel, PVP-K30 and SDS (referred to hereinafter as MODRA).
# Docetaxel dose: 30 mg for all patients (with the exception of patient 306 who received 20 mg docetaxel). The 30 mg dose was prepared as follows: 3.0 mL Taxotere® premix for intravenous administration (containing 10 mg docetaxel per ml in polysorbate 80 (25% v/v), ethanol (10% (w/w), and water) was mixed with water to a final volume of 25 mL. This solution was orally ingested by the patient with 100 mL tap water.
# Docetaxel dose: 30 mg; 2 capsules with 15 mg docetaxel per capsule were ingested. Formulation E from the previous example (1/11 docetaxel, 9/11 PVP-K30 and 1/11 SDS) was selected for further testing in the clinical trial. A new batch of formulation E was produced by dissolving 1200 mg docetaxel anhydrate in 120 mL of t-butanol, and 10800 mg PVP-K30 and 1200 mg SDS (see table 13) in 80 mL of Water for Injection. The docetaxel/t-butanol solution was added to the PVP-K30/SDS/WfI solution under constant stirring. […]
# The bioavailability of the MODRA capsules was calculated by: […]
solubility from 10 to 60 minutes ([1]; 10 to 60 minutes),"time of stirring to maximum concentration ([1]; 25 mL WfI, 37° C., 720 rpm) [min]","maximum docetaxel concentration reached ([1]; 25 mL WfI, 37° C., 720 rpm)","maximum docetaxel in solution, % of total docetaxel present ([1]; 25 mL WfI, 37° C., 720 rpm) [%]",time at which equilibrium concentration is reached [1] [min],"equilibrium docetaxel in solution, % of total docetaxel present ([1]; after precipitation) [%]","equilibrium docetaxel concentration ([1]; after precipitation, 25 mL WfI, 37° C., 720 rpm)",fold increase of docetaxel AUC by second boosting dose of ritonavir [2] [fold],SMILES
comparable to formulation A,0.5,32 µg/mL,13,–,–,–,–,"CC(=O)O[C@@]12CO[C@@H]1C[C@H](O)[C@@]1(C)C(=O)[C@H](O)C3=C(C)[C@@H](OC(=O)[C@H](O)[C@@H](NC(=O)OC(C)(C)C)c4ccccc4)C[C@@](O)([C@@H](OC(=O)c4ccccc4)[C@H]21)C3(C)C [Formulation B, Amorphous Docetaxel]"
–,5,approximately 12 μg/mL,~4.7,15,~2,approximately 6 μg/mL,–,"CC(=O)O[C@@]12CO[C@@H]1C[C@H](O)[C@@]1(C)C(=O)[C@H](O)C3=C(C)[C@@H](OC(=O)[C@H](O)[C@@H](NC(=O)OC(C)(C)C)c4ccccc4)C[C@@](O)([C@@H](OC(=O)c4ccccc4)[C@H]21)C3(C)C [Formulation A, Anhydrous Docetaxel]"
–,–,–,–,–,–,–,1.5,CC(=O)O[C@@]12CO[C@@H]1C[C@H](O)[C@@]1(C)C(=O)[C@H](O)C3=C(C)[C@@H](OC(=O)[C@H](O)[C@@H](NC(=O)OC(C)(C)C)c4ccccc4)C[C@@](O)([C@@H](OC(=O)c4ccccc4)[C@H]21)C3(C)C [docetaxel]

# Source: patent US20110207804A1, “COMPOSITIONS FOR THE TREATMENT OF NEOPLASTIC DISEASES” (Slotervaart Participaties BV, priority 2008, published 2011)
